Measurements from US8124382B2, “Methods, microarray, and kits for detection of drug resistance genes in gram-negative bacteria” (CapitalBio Corporation, priority 2006, dated 2012).

Key:
Experiment in all cases: in vitro antimicrobial susceptibility test (MIC, CLSI standard method)
K. pneumoniae BJ-35 = type: cell-based, Klebsiella pneumoniae; details: for The in vitro antimicrobial susceptibility test/MIC: strain BJ-35 (K. pneumoniae), CLA at fixed concentration 4 μg/ml in combinations
Description: (§1) Three gram-negative bacteria in Table 3 were tested. The in vitro antimicrobial susceptibility result was obtained according to the standard method of Clinical and Laboratory Standards Institute (CLSI).

K. pneumoniae BJ-7 = type: cell-based, Klebsiella pneumoniae; details: for The in vitro antimicrobial susceptibility test/MIC: strain BJ-7 (K. pneumoniae), CLA at fixed concentration 4 μg/ml in combinations
Description: as §1

K. pneumoniae E298 = type: cell-based, Klebsiella pneumoniae; details: for The in vitro antimicrobial susceptibility test/MIC: strain E298 (K. pneumoniae), CLA at fixed concentration 4 μg/ml in combinations
Description: as §1

E. coli Z302 = type: cell-based; details: for The in vitro antimicrobial susceptibility test/MIC: strain Z302 (E. coli), CLA at fixed concentration 4 μg/ml in combinations
Description: as §1
The resistance genes in E. coli Z302 were detected using the microarray in FIG. 1 according to the method in Example 1. […] Thus the kit for detection of resistance genes in gram-negative bacteria in the present invention can be used to specifically detect the resistance genes in the prevalent gram-negative bacteria E. coli.

E. cloacae TR3104 = type: cell-based; details: strain TR3104; for The in vitro antimicrobial susceptibility test/MIC: CLA at fixed concentration 4 μg/ml in combinations
Description: as §1
The resistance genes in E. cloacae TR3104 were detected using the microarray in FIG. 1 according to the method in example 1. […] Thus the kit for detection of resistance genes in gram-negative bacteria in the present invention can be used to specifically detect the resistance genes in the prevalent gram-negative bacteria E. cloacae.

[1] = strain BJ-35, shown by microarray-detected genes, consistent with MIC results
[2] = strain BJ-7, shown by microarray-detected genes, consistent with MIC results
[3] = strain E298, shown by microarray-detected genes, consistent with MIC results
[4] = strain Z302, shown by microarray-detected genes, consistent with MIC results

Row | Compound | inhibition of the isolate's resistance by clavulanate (K. pneumoniae BJ-35; [1]) | inhibition of the isolate's resistance by clavulanate (K. pneumoniae BJ-7; [2]) | inhibition of the isolate's resistance by clavulanate (K. pneumoniae E298; [3]) | inhibition of the isolate's resistance by clavulanate (E. coli Z302; [4]) | The in vitro antimicrobial susceptibility test/MIC (K. pneumoniae BJ-35) [µg/mL] | The in vitro antimicrobial susceptibility test/MIC (K. pneumoniae BJ-7) [µg/mL] | The in vitro antimicrobial susceptibility test/MIC (K. pneumoniae E298) | The in vitro antimicrobial susceptibility test/MIC (E. coli Z302) | The in vitro antimicrobial susceptibility test/MIC (E. cloacae TR3104) | resistance or susceptibility of the isolate (K. pneumoniae BJ-35; [1]) | resistance or susceptibility of the isolate (K. pneumoniae BJ-7; [2]) | resistance or susceptibility of the isolate (K. pneumoniae E298; [3]) | resistance or susceptibility of the isolate (E. coli Z302; [4]) | resistance or susceptibility of the isolate (E. cloacae TR3104; shown by microarray-detected genes, consistent with MIC results)
1 | O=C(O)[C@H]1/C(=C/CO)O[C@@H]2CC(=O)N21 [clavulanate] | inhibited | inhibited | not inhibited | not inhibited | – | – | – | – | – | – | – | – | – | –
2 | C[C@@H](O)[C@H]1C(=O)N2C(C(=O)O)=C(SCCN=CN)C[C@H]12 [IMP, imipenem] | – | – | – | – | <0.5 | <0.5 | <0.5 µg/mL | 4 µg/mL | 4 µg/mL | – | – | – | – | –
3 | CO/N=C(\C(=O)N[C@@H]1C(=O)N2C(C(=O)O)=C(COC(C)=O)CS[C@H]12)c1csc(N)n1 [CTX, cefotaxime] | – | – | – | – | 8 | 64 | ≧128 μg/ml | ≧128 μg/ml | 64 µg/mL | – | – | – | – | –
4 | CC(C)(O/N=C(\C(=O)N[C@@H]1C(=O)N2C(C(=O)[O-])=C(C[n+]3ccccc3)CS[C@H]12)c1csc(N)n1)C(=O)O [CAZ, ceftazidime] | – | – | – | – | 4 | 32 | ≧128 μg/ml | ≧128 μg/ml | 4 µg/mL | – | – | – | – | –
5 | CO[C@@]1(NC(=O)Cc2cccs2)C(=O)N2C(C(=O)O)=C(COC(N)=O)CS[C@@H]21 [FOX, cefoxitin] | – | – | – | – | 2 | 8 | ≧128 μg/ml | ≧128 μg/ml | ≧256 μg/ml | susceptible | susceptible | resistant | resistant | resistant
